Holding throughout (format): physicochemical
A short description of series [1]: Preliminary solubility in 14 solvents by solvent addition with visual assessment. As to conditions: thermodynamic from solid, RT. The text has this: Preliminary solubility of Compound 1 (Form V) was estimated in 14 selected solvents at RT using solvent addition method via visual assessment of samples.
The nature of series [2]: Water activity studies in IPA/water. As to the method:
Water activity studies of Form I, II and V were also performed in IPA/water with different water content at RT and 50° C.

Series [3] is described as follows: Solid form characterization summary (hygroscopicity comment). To be noted: comment on solid form. The text has this:
A summary of the characterization data for the solid forms of Compound 1 identified is shown below in Table 15.

The nature of series [4]: Solid stability of Form II. On the procedure: (§1) HPLC analysis was performed with an Agilent HPLC 1260 series instrument.
The solid stability of Form II was evaluated at 60° C. for 7 days, 40° C./75% RH for 6 days, and RT/92.5% RH for 2 days, respectively. […] The purity of Compound 1 decreased by about 0.3% at 60° C. for 3 days and 7 days, mainly due to the increase of the impurities at RRT 0.9, 0.91 and 1.07.

Series [5] can be described thus: Solubility testing of Form II in SGF, water, FaSSIF and FeSSIF. To be noted: for solubility: thermodynamic from solid. On the procedure:
Nine crystal forms were identified, assigned as Form I-IX, including a mono-hydrate (Form I) four anhydrates (Form II, III, V and IX), a hemihydrate, (Form IV) and three solvates (Form VI, VII and VIII). […] The three solvates (Form VI, VII, and VIII) converted to Form II after desolvation and recrystallization during heating by DSC. Form II was evaluated by DVS, solubility and stability testing. […] The purity decreased by about 0.3% at 60° C. for 3 days and 7 days, mainly due to the increase of impurities at RRT 0.9, 0.91 and 1.07.
as §1

Series [6] in a line: Dynamic Vapor Sorption (DVS). As to the method:
Moisture sorption/desorption data was collected on a DVS Intrinsic PLUS (SMS, UK). The sample was placed into a tared sample chamber and automatically weighed. The sample was dried at 40° C./0% RH until the dm/dt was less than 0.002% and cooled to 25° C.

Series [7] can be described thus: Competitive slurry inter-conversion studies. As to conditions: competitive slurries in non-aqueous solvents, RT and 50° C. As to the method: Competitive slurries of Form I, II and V were performed in IPAC at RT and 50° C. […] A competitive slurry of Form III and Form II was conducted in IPA and IPAC at RT and 50° C., respectively, and all mixtures converted to Form II after 1 day. A competitive slurry of Form II and IX was also performed in IPA and IPAC at RT and 50° C. […] In IPA at RT and IPA and EA at RT and 50° C., all mixtures tended to convert to Form II.

Values after ≈ are worked out from the molar mass of the structure shown.

On to `C=CC(=O)N1C[C@@H](n2nc(C#Cc3c(F)cc4c(ncn4C4CC4)c3F)c(C(N)=O)c2NC)C[C@@H]1COC` [Form V, 1-((3S,5R)-1-acryloyl-5-(methoxymethyl)pyrrolidin-3-yl)-3-((1-cyclopropyl-4,6-difluoro-1H-benzo[d]imidazol-5-yl)ethynyl)-5-(methylamino)-1H-pyrazole-4-carboxamide], for which the solubility in series [1] (organic solvent or mixture, MeOH, THF, acetone, MEK and ACN, read-out: Solubility (relatively high)) is over 20000 µg/mL; in series [1] (non-polar solvents and water, read-out: Solubility (practically insoluble)), under 1000 µg/mL.
On to `C=CC(=O)N1C[C@@H](n2nc(C#Cc3c(F)cc4c(ncn4C4CC4)c3F)c(C(N)=O)c2NC)C[C@@H]1COC` [Form I, 1-((3S,5R)-1-acryloyl-5-(methoxymethyl)pyrrolidin-3-yl)-3-((1-cyclopropyl-4,6-difluoro-1H-benzo[d]imidazol-5-yl)ethynyl)-5-(methylamino)-1H-pyrazole-4-carboxamide], for which the figures for the “Water activity (aw) at which Form I is more stable than Form II” value in series [2] (50° C.) and in series [2] (RT) were at least 0.75 and at least 0.55, respectively.
With `C=CC(=O)N1C[C@@H](n2nc(C#Cc3c(F)cc4c(ncn4C4CC4)c3F)c(C(N)=O)c2NC)C[C@@H]1COC` [Form III, 1-((3S,5R)-1-acryloyl-5-(methoxymethyl)pyrrolidin-3-yl)-3-((1-cyclopropyl-4,6-difluoro-1H-benzo[d]imidazol-5-yl)ethynyl)-5-(methylamino)-1H-pyrazole-4-carboxamide], the Hygroscopicity entry in series [3] is given as “Hygroscopic”.
For the molecule `C=CC(=O)N1C[C@@H](n2nc(C#Cc3c(F)cc4c(ncn4C4CC4)c3F)c(C(N)=O)c2NC)C[C@@H]1COC` [Compound 1, 1-((3S,5R)-1-acryloyl-5-(methoxymethyl)pyrrolidin-3-yl)-3-((1-cyclopropyl-4,6-difluoro-1H-benzo[d]imidazol-5-yl)ethynyl)-5-(methylamino)-1H-pyrazole-4-carboxamide], the solubility is 27000 to 36000 µg/mL (≈ 51.6 to 68.8 mM) in series [1] (organic solvent or mixture, ACN, Form V material, read-out: Solubility); about 34000 µg/mL (≈ 64.9 mM) in series [1] (organic solvent or mixture, Acetone, Form V material, read-out: Solubility); about 8000 µg/mL (≈ 15.3 mM) in series [1] (organic solvent or mixture, EA, Form V material, read-out: Solubility); about 21000 µg/mL (≈ 40.1 mM) in series [1] (organic solvent or mixture, EtOH, Form V material, read-out: Solubility); about 5000 µg/mL (≈ 9.55 mM) in series [1] (organic solvent or mixture, IPA, Form V material, read-out: Solubility); about 4000 µg/mL (≈ 7.64 mM) in series [1] (organic solvent or mixture, IPAC, Form V material, read-out: Solubility). The solubility in series [1] (organic solvent or mixture, Isobutanol, Form V material, read-out: Solubility) is about 6000 µg/mL (≈ 11.5 mM); in series [1] (organic solvent or mixture, MEK, Form V material, read-out: Solubility) it was about 31000 µg/mL (≈ 59.2 mM); in series [1] (organic solvent or mixture, MTBE, Form V material, read-out: Solubility), under 750 µg/mL; in series [1] (organic solvent or mixture, MeOH, Form V material, read-out: Solubility), over 106000 µg/mL; in series [1] (organic solvent or mixture, THF, Form V material, read-out: Solubility), over 100000 µg/mL; in series [1] (organic solvent or mixture, Toluene, Form V material, read-out: Solubility) it was under 1000 µg/mL. Also, the solubility was under 1000 µg/mL in series [1] (organic solvent or mixture, n-Heptane, Form V material, read-out: Solubility) and under 1000 µg/mL in series [1] (Water, Form V material, read-out: Solubility).
Take `C=CC(=O)N1C[C@@H](n2nc(C#Cc3c(F)cc4c(ncn4C4CC4)c3F)c(C(N)=O)c2NC)C[C@@H]1COC` [Form II, 1-((3S,5R)-1-acryloyl-5-(methoxymethyl)pyrrolidin-3-yl)-3-((1-cyclopropyl-4,6-difluoro-1H-benzo[d]imidazol-5-yl)ethynyl)-5-(methylamino)-1H-pyrazole-4-carboxamide]: the Solid stability result is “physically and chemically stable” in series [4] (40° C./75% RH for 6 days); “physically stable” in series [4] (RT/92.5% RH for 2 days). Besides, the Purity decrease entry in series [4] (60° C. for 3 days and 7 days) is “about 0.3%”. The solubility in series [5] (SGF, simulated gastric fluid) was 800 µg/mL (≈ 1.53 mM); in series [5] (water), about 3 µg/mL (≈ 0.00573 mM). Besides, the “Solubility in FeSSIF relative to FaSSIF” value in series [5] (at 24 h) was “about thirty times higher”. Also, the Hygroscopicity result in series [6] (DVS) is given as “slightly hygroscopic”. In addition, the “Crystal form after DVS testing” value in series [6] (after DVS testing) is on record as “remained unchanged”. Besides, the “Water activity (aw) at which the form is physically stable” value in series [2] (50° C.) is at most 0.55; in series [2] (RT), at most 0.35. In addition, the “Relative stability of forms” value in series [7] is “most stable form in non-aqueous solvents”.

A word on the solubility: it is how much of the substance goes into solution per volume.
